# Results from patent publication US20060093562A1 (priority 2004, published 2006).
# Like-named read-outs stand apart in the source and are kept apart here.
# Key:
# [1] = Foam height test (vortexed paste/gel/water mixture with surfactant); format: physicochemical; details: 1% total surfactant (actives); for Total Height: 1 g surfactant-free paste of Table 1, 1 g surfactant-free gel of Table 2, 6 g water, vortex 1 minute, foam plus liquid underneath; for Liquid Height: volume of liquid underneath the foam, less than 5 mL not quantifiable
# Description: The test used 1% total surfactant (actives). The surfactant was added to an aqueous mixture containing 1 g of surfactant-free paste of Table 1, 1 g of the surfactant-free version of the gel of Table 2, and 6 g of water. The mixture, prepared in a centrifuge tube, is placed on a Vortex-Genie 2 (Scientific Industries) on setting 5, and allowed to vortex for 1 minute. The total height measured was the total volume of the foam plus any liquid underneath. The liquid height was the volume of liquid underneath the foam. Liquid volumes of less than 5 mL could not be quantified since the lowest level on the centrifuge tube used to conduct the foam test was 5 mL.
# [2] = format: physicochemical; details: paste of Table 1 with surfactant
Total Height [1] [mL],Liquid Height [1] [mL],Phase Behavior ([2]; stored at 100° F.),Phase Behavior ([2]; stored at RT),Saturated solution concentration,Molecule
9,7,–,–,–,"Sodium Laureth Sulfate, 2 Ether Groups [SLES-2]"
9,7,Single Phase,Single Phase,–,"CCCCCCCCCCCCOS(=O)(=O)[O-].[Na+] [SLS, Sodium Lauryl Sulfate]"
19,<5,–,–,–,"CCCCCCCCCCOS(=O)(=O)[O-].[Na+] [SDS, Sodium Decyl Sulfate]"
–,–,–,–,about 3.8%,O=C([O-])O.[Na+] [sodium bicarbonate]
9,7,–,–,–,"Sodium Laureth Sulfate, 1 Ether Group [SLES-1]"
10,7,–,–,–,"Sodium Laureth Sulfate, 3 Ether Groups [SLES-3]"

Molecule,Total Height [1] [mL],Liquid Height [1] [mL],Phase Behavior ([2]; stored at 100° F.),Phase Behavior ([2]; stored at RT),Saturated solution concentration
Cocamidopropyl Betaine [CBT],10,7,–,–,–
